Key:
solid tumor cells M2R = details: Treg 2×10^6 cells exposed to dopamine 10^−5 M
Description: In another experiment, mice (n=10) were inoculated with solid tumor cells M2R, and received an immediate injection of Treg (2×10^6 cells) with and without exposure to dopamine (10^−5M). Control animals (n=10) received an injection of vehicle (PBS) following cancer cells inoculation.

[1] = system: CXCR-4 and CCR-8 mRNA in Treg; details: data not shown

NCCc1ccc(O)c(O)c1 [dopamine, 3,4-dihydroxyphenethylamine]
Tumor development in mice injected with Treg exposed to dopamine (solid tumor cells M2R): did not differ from control mice
Expression of mRNA for CXCR-4 and CCR-8 in Treg [1]: did not change

— patent publication US20100168085A1, “Dopamine and agonists and antagonists thereof for modulation of suppressive activity of CD4+CD25+ regulatory T cells” (YESA RESEARCH AND DEVELOPMENT CO. LTD. at the Weizmann …, priority 2003, published 2010)
